system: HCV replicon cells; experiment: Cell-based HCV replicon assay (replicon RNA level by real time PCR, Taqman); conditions: Hepatitis C virus, 72 h, HCV replicon cells, harvested on day 3, replicon RNA by real time PCR; calculated EC90 reported as range class; read-out: EC90 (μM) range
How it was run: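 HCV replicon cells treated 3 days with 10 serial 2-fold compound dilutions (top 25 μM to 1 μM; 0.5% DMSO, 10% FBS). Replicon RNA quantified by multiplex Taqman RT-PCR (NS5B amplicon, GAPDH control); EC50 and EC90 = concentrations giving ΔCT of 1 and 3.2 over baseline.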

SMILES | EC90 [µM]
Cc1cc(C)cc(CNc2nc(C)c(-c3nc4ccccc4s3)c(N[C@@H]3C[C@H](CO)[C@@H](O)[C@H]3O)n2)c1 [Example 713] | < 0.5
COCc1cc2cc(-c3c(C)nc(NCC(C)(C)C)nc3N[C@@H]3C[C@H](CO)[C@H]4OC(C)(C)O[C@H]43)oc2cn1 [Example 714] | 0.5 to 5
COCc1cc2cc(-c3c(C)nc(NCC(C)(C)C)nc3N[C@@H]3C[C@H](CO)[C@@H](O)[C@H]3O)oc2cn1 [Example 715] | < 0.5
Cc1nc(NCc2ncccn2)nc(N[C@@H]2C[C@H](CO)[C@@H](O)[C@H]2O)c1-c1nc2ccccc2s1 [Example 717] | < 0.5

same assay, conditions: Hepatitis C virus, 72 h, HCV replicon cells, replicon RNA level by real time PCR (Taqman), harvested on day 3; calculated EC90 reported as range class; read-out: EC90 (μM) range

SMILES | EC90 [µM]
CCOCCNc1nc(C)c(-c2nc3cc(OC(F)F)c(OC(F)F)cc3s2)c(N[C@@H]2C[C@H](CO)[C@H]3OC(C)(C)O[C@H]32)n1 [Example 1001] | > 5
CCOCCNc1nc(C)c(-c2nc3cc(OC(F)F)c(OC(F)F)cc3s2)c(N[C@@H]2C[C@H](CO)[C@@H](O)[C@H]2O)n1 [Example 1002] | 0.5 to 5
COCCNc1nc(C)c(-c2nc3cc(OC(F)F)c(OC(F)F)cc3s2)c(N[C@@H]2C[C@H](CO)[C@H]3OC(C)(C)O[C@H]32)n1 [Example 1003] | > 5
COCCNc1nc(C)c(-c2nc3cc(OC(F)F)c(OC(F)F)cc3s2)c(N[C@@H]2C[C@H](CO)[C@@H](O)[C@H]2O)n1 [Example 1004] | 0.5 to 5
Cc1nc(NCC2CC2)nc(N[C@@H]2C[C@H](CO)[C@H]3OC(C)(C)O[C@H]32)c1-c1nc2cc(OC(F)F)c(OC(F)F)cc2s1 [Example 1005] | > 5
Cc1nc(NCC2CC2)nc(N[C@@H]2C[C@H](CO)[C@@H](O)[C@H]2O)c1-c1nc2cc(OC(F)F)c(OC(F)F)cc2s1 [Example 1006] | 0.5 to 5
Cc1nc(Nc2ccccc2)nc(N[C@@H]2C[C@H](CO)[C@@H](O)[C@H]2O)c1-c1nc2ccccc2s1 [Example 1007] | 0.5 to 5
CCOCCNc1nc(C)c(-c2nc3cc(OC)ccc3s2)c(N[C@@H]2C[C@H](CO)[C@@H](O)[C@H]2O)n1 [Example 1008] | 0.5 to 5
COCCNc1nc(C)c(-c2nc3cc(OC)ccc3s2)c(N[C@@H]2C[C@H](CO)[C@@H](O)[C@H]2O)n1 [Example 1009] | 0.5 to 5
COc1ccc2sc(-c3c(C)nc(NCC(F)(F)F)nc3N[C@@H]3C[C@H](CO)[C@@H](O)[C@H]3O)nc2c1 [Example 1010] | 0.5 to 5
Cc1nc(NCC(=O)O)nc(N[C@@H]2C[C@H](CO)[C@@H](O)[C@H]2O)c1-c1nc2ccccc2s1 [Example 1011] | 0.5 to 5
Cc1nc(NCCC(=O)O)nc(N[C@@H]2C[C@H](CO)[C@@H](O)[C@H]2O)c1-c1nc2ccccc2s1 [Example 1012] | > 5
Cc1nc(Nc2nccs2)nc(N[C@@H]2C[C@H](CO)[C@@H](O)[C@H]2O)c1-c1nc2ccccc2s1 [Example 1013] | 0.5 to 5
Cc1nc(NCC(C)(C)O)nc(N[C@@H]2C[C@H](CO)[C@@H](O)[C@H]2O)c1-c1nc2ccccc2s1 [Example 1014] | < 0.5
Cc1nc(NCC(F)(F)F)nc(N[C@@H]2C[C@H](CN3CCOCC3)[C@@H](O)[C@H]2O)c1-c1nc2ccccc2s1 [Example 1015] | 0.5 to 5
Cc1nc(NCC(F)(F)F)nc(N[C@@H]2C[C@H](CN(C)C)[C@@H](O)[C@H]2O)c1-c1nc2ccccc2s1 [Example 1016] | 0.5 to 5
Cc1nc(NCC(F)(F)F)nc(N[C@@H]2C[C@H](CN3CCCC3)[C@@H](O)[C@H]2O)c1-c1nc2ccccc2s1 [Example 1017] | 0.5 to 5
CCNC[C@H]1C[C@@H](Nc2nc(NCC(F)(F)F)nc(C)c2-c2nc3ccccc3s2)[C@H](O)[C@@H]1O [Example 1018] | 0.5 to 5
CCOCCNc1nc(C)c(-c2nc3ccccc3s2)c(N[C@@H]2C[C@H](C(F)F)[C@@H](O)[C@H]2O)n1 [Example 1019] | < 0.5

SMILES | EC90 [µM]
CCOCCCNc1nc(C)c(-c2nc3ccccc3s2)c(N[C@@H]2C[C@H](CO)[C@@H](O)[C@H]2O)n1 [Example 1041] | 0.5 to 5
Cc1nc(Nc2cccc(F)c2)nc(N[C@@H]2C[C@H](CO)[C@@H](O)[C@H]2O)c1-c1nc2ccccc2s1 [Example 1042] | > 5
Cc1nc(Nc2ccccc2F)nc(N[C@@H]2C[C@H](CO)[C@@H](O)[C@H]2O)c1-c1nc2ccccc2s1 [Example 1043] | > 5
Cc1nc(Nc2ccc(F)cc2)nc(N[C@@H]2C[C@H](CO)[C@@H](O)[C@H]2O)c1-c1nc2ccccc2s1 [Example 1044] | 0.5 to 5
Cc1ccc(Nc2nc(C)c(-c3nc4ccccc4s3)c(N[C@@H]3C[C@H](CO)[C@@H](O)[C@H]3O)n2)cc1 [Example 1045] | > 5
Cc1cccc(Nc2nc(C)c(-c3nc4ccccc4s3)c(N[C@@H]3C[C@H](CO)[C@@H](O)[C@H]3O)n2)c1 [Example 1046] | 0.5 to 5
Cc1ccccc1Nc1nc(C)c(-c2nc3ccccc3s2)c(N[C@@H]2C[C@H](CO)[C@@H](O)[C@H]2O)n1 [Example 1047] | 0.5 to 5
COCCCCNc1nc(C)c(-c2nc3ccccc3s2)c(N[C@@H]2C[C@H](CO)[C@@H](O)[C@H]2O)n1 [Example 1048] | < 0.5
COCCCCNc1nc(C)c(-c2nc3cnccc3s2)c(N[C@@H]2C[C@H](CO)[C@@H](O)[C@H]2O)n1 [Example 1050] | < 0.5
Cc1nc(Nc2ccncc2)nc(N[C@@H]2C[C@H](CO)[C@@H](O)[C@H]2O)c1-c1nc2ccccc2s1 [Example 1051] | 0.5 to 5
CCOCCCCNc1nc(C)c(-c2nc3ccccc3s2)c(N[C@@H]2C[C@H](CO)[C@@H](O)[C@H]2O)n1 [Example 1052] | < 0.5
Cc1nc(Nc2ccc(F)cc2)nc(N[C@@H]2C[C@H](CO)[C@@H](O)[C@H]2O)c1-c1nc2cnccc2s1 [Example 1053] | < 0.5
Cc1nc(NCC2CC2)nc(N[C@@H]2C[C@H](CO)[C@@H](O)[C@H]2O)c1-c1cc2cc(OCC(C)C)nc(C)c2o1 [Example 1054] | 0.5 to 5
Cc1nc(NCC(F)(F)F)nc(N[C@@H]2C[C@H](CO)[C@@H](O)[C@H]2O)c1-c1cc2cc(OCC(C)C)nc(C)c2o1 [Example 1055] | 0.5 to 5
Cc1nc(Nc2cccc(F)c2)nc(N[C@@H]2C[C@H](CO)[C@@H](O)[C@H]2O)c1-c1nc2cnccc2s1 [Example 1056] | < 0.5
Cc1nc(OCC(F)(F)F)nc(N[C@@H]2C[C@H](CO)[C@@H](O)[C@H]2O)c1-c1nc2ccccc2s1 [Example 1057] | > 5
OC[C@H]1C[C@@H](Nc2nc(NCC(F)(F)F)ncc2-c2nc3ccccc3s2)[C@H](O)[C@@H]1O [Example 1058] | 0.5 to 5
Cc1nc(NCC2CC2)nc(N[C@@H]2C[C@H](CO)[C@@H](O)[C@H]2O)c1-c1cc2cc(OCC3CCC3)nc(C)c2o1 [Example 1059] | > 5
Cc1nc(NCC(F)(F)F)nc(N[C@H]2C[C@@H](CO)[C@H](O)[C@@H]2O)c1-c1nc2ccccc2s1 [Example 1060] | > 5

SMILES | EC90 [µM]
Cc1cc2nc(-c3c(C)nc(NCC(F)(F)F)nc3N[C@@H]3C[C@H](CO)[C@@H](O)[C@H]3O)sc2cc1C [Example 1061] | 0.5 to 5
COCC(O)CNc1nc(C)c(-c2nc3ccccc3s2)c(N[C@@H]2C[C@H](CO)[C@@H](O)[C@H]2O)n1 (stereo partly shown) [Example 1062] | > 5
Cc1ccc2nc(-c3c(C)nc(NCC(F)(F)F)nc3N[C@@H]3C[C@H](CO)[C@@H](O)[C@H]3O)sc2c1 [Example 1063] | 0.5 to 5
CNc1ccc2oc(-c3c(C)nc(NCC(F)(F)F)nc3N[C@@H]3C[C@H](CO)[C@@H](O)[C@H]3O)nc2c1 [Example 1064] | > 5
CNc1ccc2oc(-c3c(C)nc(NCC4CC4)nc3N[C@@H]3C[C@H](CO)[C@@H](O)[C@H]3O)nc2c1 [Example 1065] | 0.5 to 5
Cc1nc(NCCOC(F)(F)F)nc(N[C@@H]2C[C@H](CO)[C@@H](O)[C@H]2O)c1-c1nc2ccccc2s1 [Example 1066] | < 0.5
COc1cccc2sc(-c3c(C)nc(NCC4CC4)nc3N[C@@H]3C[C@H](CO)[C@@H](O)[C@H]3O)nc12 [Example 1067] | < 0.5
COc1cccc2sc(-c3c(C)nc(N[C@H](C)c4ccc(C)cc4)nc3N[C@@H]3C[C@H](CO)[C@@H](O)[C@H]3O)nc12 [Example 1068] | 0.5 to 5
COCCNC[C@H]1C[C@@H](Nc2nc(NCC(F)(F)F)nc(C)c2-c2nc3ccccc3s2)[C@H](O)[C@@H]1O [Example 1069] | 0.5 to 5
COc1cccc2sc(-c3c(C)nc(NCC(F)(F)F)nc3N[C@@H]3C[C@H](CO)[C@@H](O)[C@H]3O)nc12 [Example 1070] | 0.5 to 5
CNC[C@H]1C[C@@H](Nc2nc(NCC(F)(F)F)nc(C)c2-c2nc3ccccc3s2)[C@H](O)[C@@H]1O [Example 1071] | 0.5 to 5
COc1cccc2sc(-c3c(C)nc(NCC(F)(F)F)nc3N[C@@H]3C[C@H](C(C)O)[C@@H](O)[C@H]3O)nc12 (stereo partly shown) [Example 1072] | 0.5 to 5
COc1cccc2sc(-c3c(C)nc(NCC4CC4)nc3N[C@@H]3C[C@H](C(C)O)[C@@H](O)[C@H]3O)nc12 (stereo partly shown) [Example 1073] | 0.5 to 5
Cc1nc(NC(C)c2ccco2)nc(N[C@@H]2C[C@H](CO)[C@H]3OC(C)(C)O[C@H]32)c1-c1nc2ccccc2s1 (stereo partly shown) [Example 1101] | > 5
Cc1nc(NC(C)c2ccco2)nc(N[C@@H]2C[C@H](CO)[C@@H](O)[C@H]2O)c1-c1nc2ccccc2s1 (stereo partly shown) [Example 1102] | 0.5 to 5
Cc1nc(NCC(C)(C)C)nc(N[C@@H]2C[C@H](CO)[C@H]3OC(C)(C)O[C@H]32)c1-c1cc2cc(C(C)(C)C)ncc2o1 [Example 1103] | > 5
Cc1nc(NCC(C)(C)C)nc(N[C@@H]2C[C@H](CO)[C@@H](O)[C@H]2O)c1-c1cc2cc(C(C)(C)C)ncc2o1 [Example 1104] | > 5
Cc1nc(NCc2cccc(N(C)C)c2)nc(N[C@@H]2C[C@H](CO)[C@H]3OC(C)(C)O[C@H]32)c1-c1nc2ccccc2s1 [Example 1105] | 0.5 to 5
Cc1nc(NCc2cccc(N(C)C)c2)nc(N[C@@H]2C[C@H](CO)[C@@H](O)[C@H]2O)c1-c1nc2ccccc2s1 [Example 1106] | < 0.5

Reference: patent US8697694B2, “Substituted pyridine and pyrimidine derivatives and their use in treating viral infections” (priority 2008, dated 2014)
